This note sets out measurements from article PMC3038857, “Using Nuclear Receptor Activity to Stratify Hepatocarcinogens” (PLoS ONE, 2011).

One series concerns the target T1, PPARg (PPARG) (Homo sapiens, UniProt P37231).
T1 sequence (P37231 1-505): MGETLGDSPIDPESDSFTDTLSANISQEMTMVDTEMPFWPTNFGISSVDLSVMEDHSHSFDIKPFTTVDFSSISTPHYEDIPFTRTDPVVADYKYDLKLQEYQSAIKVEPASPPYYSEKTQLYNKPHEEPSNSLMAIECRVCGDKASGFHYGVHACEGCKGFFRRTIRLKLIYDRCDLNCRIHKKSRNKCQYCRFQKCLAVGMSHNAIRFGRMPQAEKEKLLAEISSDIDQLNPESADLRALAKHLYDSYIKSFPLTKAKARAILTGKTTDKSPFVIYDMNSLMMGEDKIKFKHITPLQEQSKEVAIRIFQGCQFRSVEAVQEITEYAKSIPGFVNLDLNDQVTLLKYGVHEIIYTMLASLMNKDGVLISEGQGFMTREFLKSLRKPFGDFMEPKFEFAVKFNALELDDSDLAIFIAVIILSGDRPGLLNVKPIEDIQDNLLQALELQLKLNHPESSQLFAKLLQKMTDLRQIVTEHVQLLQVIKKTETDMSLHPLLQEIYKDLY
Briefly: NVS_NR_hPPARg: Human PPARg Fluorescent Ligand (cell-free HTS). The format is binding. The note with it: scale not given, looks like -log10 of molar active concentration, 0 = no activity. The source says: These are a collection of biochemical assays measuring binding constants and enzyme inhibition values. Chemicals were initially screened at a single concentration in duplicate wells at a concentration of 10 [drawing 63] M for cytochrome P-450 assays and 25 [drawing 64] M for all others. […] These assays were run by Caliper Life Sciences (Hanover, MD) under contract to EPA. Short assay descriptions are available at: http://www.caliperls.com/products/contract-research/in-vitro/.
Cell-free HTS Assays: A collection of biochemical assays measuring binding constants and enzyme inhibition values. […] These assays were run by Caliper Life Sciences (Hanover, MD) under contract to EPA. Short assay descriptions are available at http://www.caliperls.com/products/contract-research/in-vitro/. Values for all endpoints were imported into GeneData Screener (Basel, Switzerland) and normalised to solvent controls from the same plate as the tested compounds and expressed as percent of neutral control. Concentration-response curves were fit in GeneData Screener (Basel, Switzerland) Condeseo module using the Hill equation and AC50 values were determined. […] Detailed description of the methods, data and analysis methods for this dataset are described in a separate publication.

The subject of another series is HMGCS2. Briefly: CLZD_HMGCS2: Change in expression of HMGCS2 (primary human hepatocytes). It counts as cell-based. Particulars: 24 hr, scale not given, looks like -log10 of molar active concentration, 0 = no activity. The procedure: This is a collection of multiplexed gene expression assays focused on Phase I and II xenobiotic metabolizing enzymes and transporters. Human primary cell cultures were treated with chemicals at 5 concentrations (0.004-40 [drawing 42] M) for 6, 24 and 48 hr. Concentration- and time-response profiles of chemicals were measured by the expression of key nuclear receptor target genes, activities of CYP1A enzymes (EROD), and cell morphology. Fourteen gene targets were monitored by quantitative nuclease protection assay including: six representative cytochrome P-450 genes, four hepatic transporters, three Phase II conjugating enzymes, and one endogenous metabolism gene involved in cholesterol synthesis. The target genes associated with nuclear receptor pathways are as follows: [drawing 43] and [drawing 44] with [drawing 45]; [drawing 46] , [drawing 47] , [drawing 48] , [drawing 49] , [drawing 50] and [drawing 51] with [drawing 52]; [drawing 53] , [drawing 54] , [drawing 55] and [drawing 56] with [drawing 57]; [drawing 58] with [drawing 59]; and [drawing 60] with [drawing 61] . Assays were run in primary human hepatocyte cultures by CellzDirect Invitrogen Inc. (Durham, NC), in collaboration with EPA.
Multiplexed Gene Expression in Human Primary Hepatocytes: This is a collection of multiplexed gene expression assays focused on Phase I and II metabolic enzymes and transporters. […] Fourteen gene targets were monitored by quantitative nuclease protection assay: six representative cytochrome P450 genes, four hepatic transporters, three Phase II conjugating enzymes, and one endogenous metabolism gene involved in cholesterol synthesis. Cells were exposed at 5 concentrations (0.004-40 µM) for 6, 24 or 48 hr. Gene targets are sentinels for five nuclear receptor signaling pathways: AhR, CAR, PXR, FXR, and PPARα. All gene are associated with nuclear receptor pathways: CYP1A1 and CYP1A2 with AHR; ABCB1, ABCG2, CYP2B6, CYP2C9, CYP2C19 and UGT1A1 with CAR; CYP3A4, GSTA2, SLCO1B1 and SULT2A1 with PXR; HMGCS2 with PPARA; and ABCB11 with FXR. […] Detailed description of the methods, data and analysis methods for this dataset will be presented in a separate publication.

In the next series the test system is AR (androgen receptor). Briefly: NVS_NR_hAR: Human AR 3H-Methyltrienolone (cell-free HTS). The format is binding. Particulars: scale not given, looks like -log10 of molar active concentration, 0 = no activity. Summed up: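 Cell-free biochemical binding assays; chemicals first screened at a single concentration of 25 […] M in duplicate wells. Signals normalised to same-plate solvent controls as percent of neutral control, and AC50 values came from Hill-equation fits of concentration-response curves.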

A further series has as its target T2, CAR (NR1I3) (Homo sapiens, UniProt Q14994).
T2 sequence (Q14994 1-352): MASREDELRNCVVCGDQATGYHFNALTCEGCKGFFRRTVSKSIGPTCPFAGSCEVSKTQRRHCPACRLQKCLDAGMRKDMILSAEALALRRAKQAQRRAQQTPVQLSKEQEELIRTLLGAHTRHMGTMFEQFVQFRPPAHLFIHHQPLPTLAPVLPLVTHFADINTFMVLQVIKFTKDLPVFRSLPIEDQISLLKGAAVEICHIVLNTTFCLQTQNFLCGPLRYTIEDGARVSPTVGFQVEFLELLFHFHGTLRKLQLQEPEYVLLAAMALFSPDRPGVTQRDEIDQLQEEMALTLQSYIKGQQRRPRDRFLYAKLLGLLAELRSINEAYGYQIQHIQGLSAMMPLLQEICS
Briefly: ATG_PBREM_CIS: Factorial reporter gene assay (HepG2). The format is cell-based. Details: endogenous in cells; host or cells: HepG2; scale not given here. Particulars: HepG2; scale not given, looks like -log10 of molar active concentration; 0 = no activity. In outline: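 Seven concentrations per chemical, three-fold dilutions down from the MTC, were tested in HepG2 hepatoma cells. Those cells carried a multiple reporter transcription unit library, read either as cis transcription-factor-site reporters or as a trans mammalian one-hybrid panel for nuclear receptors.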

A further series deals with CYP3A4. Briefly: CLZD_CYP3A4: Change in expression of CYP3A4 (primary human hepatocytes). It counts as cell-based. Particulars: 24 hr, scale not given, looks like -log10 of molar active concentration, 0 = no activity. In outline: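 Chemicals are tested in human hepatocyte primary cultures over 0.004-40 µM (5 concentrations) for 6, 24 or 48 hr, and concentration- and time-dependent transcript changes are read by quantitative nuclease protection assay.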

For the molecule `CCSC(=O)N(CC(C)C)CC(C)C` [r49], the NVS_NR_hPPARg at PPARg (PPARG) turned out to be 0. Also, the CLZD_HMGCS2_24 in the series on HMGCS2 was 0. The same molecule came in with an NVS_NR_hAR in the series on AR (androgen receptor) of 0. The molecule also came in with an ATG_PBREM_CIS at CAR (NR1I3) of 0. This molecule also yielded a CLZD_CYP3A4_24 in the series on CYP3A4 of 0.

On PPARg (PPARG), `O=C1C2CC=CCC2C(=O)N1SC(Cl)(Cl)Cl` (stereo not shown) [r51] gave an NVS_NR_hPPARg of 0. In the series on HMGCS2, the CLZD_HMGCS2_24 is recorded as 0. The molecule also had an NVS_NR_hAR in the series on AR (androgen receptor) of 0. The molecule also returned an ATG_PBREM_CIS at CAR (NR1I3) of 0. This molecule also gave a CLZD_CYP3A4_24 in the series with CYP3A4 of 0.

`CCOC(=O)C(Cl)Cc1cc(-n2nc(C)n(C(F)F)c2=O)c(F)cc1Cl` (stereo not shown) [r54] gave an NVS_NR_hPPARg on PPARg (PPARG) of 0. The same molecule returned a CLZD_HMGCS2_24 with HMGCS2 of 0. The NVS_NR_hAR with AR (androgen receptor) came to 0. The same molecule had an ATG_PBREM_CIS at CAR (NR1I3) of 0. The molecule also returned a CLZD_CYP3A4_24 in the series with CYP3A4 of 4.919.

For the molecule `Nc1cnn(-c2ccccc2)c(=O)c1Cl` [r56], the NVS_NR_hPPARg on PPARg (PPARG) was 0. In the series on HMGCS2, this molecule registered a CLZD_HMGCS2_24 of 0. In the series with AR (androgen receptor), this molecule yielded an NVS_NR_hAR of 0. This molecule showed an ATG_PBREM_CIS at CAR (NR1I3) of 0. Also, the CLZD_CYP3A4_24 in the series on CYP3A4 is 0.

Molecule `N#Cc1c(Cl)c(Cl)c(Cl)c(C#N)c1Cl` [r58] showed an NVS_NR_hPPARg on PPARg (PPARG) of 6.265. For the same molecule, in the series on HMGCS2, the CLZD_HMGCS2_24 is given as 0. In the series on AR (androgen receptor), the NVS_NR_hAR was 0. In addition, the ATG_PBREM_CIS on CAR (NR1I3) was 0. The CLZD_CYP3A4_24 in the series with CYP3A4 was found to be 0.

The molecule `COc1nc(C)nc(NC(=O)NS(=O)(=O)c2ccccc2Cl)n1` [r62] returned an NVS_NR_hPPARg on PPARg (PPARG) of 0. In the series with HMGCS2, this molecule displayed a CLZD_HMGCS2_24 of 0. Further, in the series on AR (androgen receptor), the NVS_NR_hAR is reported as 0. For the same molecule, the ATG_PBREM_CIS on CAR (NR1I3) was 0. Besides, the CLZD_CYP3A4_24 in the series with CYP3A4 is 0.

`COc1nc(C)nc(NC(=O)NS(=O)(=O)c2ccccc2Cl)n1` [r63]: the NVS_NR_hPPARg on PPARg (PPARG) is 0. Further, the CLZD_HMGCS2_24 with HMGCS2 is 0. The NVS_NR_hAR in the series with AR (androgen receptor) turned out to be 0. Also, the ATG_PBREM_CIS on CAR (NR1I3) is recorded as 0. In the series on CYP3A4, this molecule returned a CLZD_CYP3A4_24 of 0.

For `Cc1ccccc1CO[C@@H]1C[C@@]2(C(C)C)CC[C@]1(C)O2` [r64], the NVS_NR_hPPARg at PPARg (PPARG) amounted to 0. For the same molecule, the CLZD_HMGCS2_24 in the series with HMGCS2 is reported as 0. In the series on AR (androgen receptor), the NVS_NR_hAR came out at 0. This molecule displayed an ATG_PBREM_CIS on CAR (NR1I3) of 0. Also, the CLZD_CYP3A4_24 with CYP3A4 is 5.116.
